Patent US9908868B2, “Isoindolinone compounds as GPR119 modulators for the treatment of diabetes, obesity, dyslipidemia and related disorders” (SANOFI, priority 2014, dated 2018)

molecular target: T1, human GPR119 (Homo sapiens, UniProt Q8TDV5); experiment: Functional cellular assay measuring GPR119-mediated cAMP release (HTRF) in HEK-293 cells stably expressing recombinant human GPR119; type: cell-based; conditions: cAMP response, cell line expressing human GPR119, 30 minutes at room temperature
T1 construct: expressed in transfected cells
T1 sequence (Q8TDV5 1-335): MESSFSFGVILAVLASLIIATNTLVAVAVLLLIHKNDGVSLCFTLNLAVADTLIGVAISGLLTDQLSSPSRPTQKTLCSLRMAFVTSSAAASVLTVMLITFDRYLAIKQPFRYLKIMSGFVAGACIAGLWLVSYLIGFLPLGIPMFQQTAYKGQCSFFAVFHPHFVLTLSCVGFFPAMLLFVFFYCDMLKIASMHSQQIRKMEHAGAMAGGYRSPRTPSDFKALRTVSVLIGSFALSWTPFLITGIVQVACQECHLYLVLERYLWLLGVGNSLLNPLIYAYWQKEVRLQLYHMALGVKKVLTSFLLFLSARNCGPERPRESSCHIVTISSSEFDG
In short: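 HEK-293 cells stably expressing recombinant human GPR119, suspended at 400000 cells/mL in HBSS/20 mM HEPES/0.1% BSA/2 mM IBMX, exposed to compound for 30 minutes at room temperature. cAMP detected by HTRF (665/620 nm ratio) after 1 h with reagents in lysis buffer. EC50 taken as concentration giving 50% of maximal activation.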

Structure (SMILES) | EC50 [µM]
CN(C)C(=O)CN1Cc2ccc(N3CC[C@@H](Oc4ccc(C(=O)CCC(F)(F)F)cc4)C3=O)cc2C1=O [Example 2-66, N,N-dimethyl-2-[1-oxo-6-[(3R)-2-oxo-3-[4-(4,4,4-trifluorobutanoyl)phenoxy]pyrrolidin-1-yl]isoindolin-2-yl]acetamide] | 0.052
C[S+]([O-])CN1Cc2ncc(N3CC[C@@H](Oc4ccc(OCC(F)(F)F)nc4)C3=O)cc2C1=O (stereo partly drawn) [Example 1-63, 6-(methylsulfinylmethyl)-3-[(3R)-2-oxo-3-[[6-(2,2,2-trifluoroethoxy)-3-pyridyl]oxy]pyrrolidin-1-yl]-7H-pyrrolo[3,4-b]pyridin-5-one] | 0.104
NC(=O)CN1Cc2ccc(N3CC[C@@H](Oc4ccc(C(=O)CCC5CC5)nc4)C3=O)cc2C1=O [Example 2-56, 2-[6-[(3R)-3-[[6-(3-cyclopropylpropanoyl)-3-pyridyl]oxy]-2-oxo-pyrrolidin-1-yl]-1-oxo-isoindolin-2-yl]acetamide] | 0.034
CN(C)C(=O)CN1Cc2ccc(N3CC[C@@H](Oc4ccc(-c5nccs5)cc4)C3=O)cc2C1=O [Example 2-42, N,N-dimethyl-2-[1-oxo-6-[(3R)-2-oxo-3-(4-thiazol-2-ylphenoxy)pyrrolidin-1-yl]isoindolin-2-yl]acetamide] | 0.117
O=C1c2cc(N3CC[C@@H](Oc4ccc(OCCC5CC5)nc4)C3=O)cc(F)c2CN1CCO [Example 1-36, 6-[(3R)-3-[[6-(2-cyclopropylethoxy)-3-pyridyl]oxy]-2-oxo-pyrrolidin-1-yl]-4-fluoro-2-(2-hydroxyethyl)isoindolin-1-one] | 0.142
COC(=O)CN1Cc2c(F)cc(N3CC[C@@H](Oc4ccc(OCCC5CC5)nc4)C3=O)cc2C1=O [Example 1-35, methyl 2-[6-[(3R)-3-[[6-(2-cyclopropylethoxy)-3-pyridyl]oxy]-2-oxo-pyrrolidin-1-yl]-4-fluoro-1-oxo-isoindolin-2-yl]acetate] | 0.019
CN(C)C(=O)CN1Cc2ccc(N3CC[C@@H](Oc4cnc(OCC5CC5)c(F)c4)C3=O)cc2C1=O [Example 2-06, 2-[6-[(3R)-3-[[6-(cyclopropylmethoxy)-5-fluoro-3-pyridyl]oxy]-2-oxo-pyrrolidin-1-yl]-1-oxo-isoindolin-2-yl]-N,N-dimethyl-acetamide] | 0.082
CN1C(=O)c2cc(N3CC[C@@H](Oc4ccc(OCC5CC5)nc4)C3=O)ccc2C1CC(=O)O (stereo partly drawn) [Example 1-03, 2-[5-[(3R)-3-[[6-(cyclopropylmethoxy)-3-pyridyl]oxy]-2-oxo-pyrrolidin-1-yl]-2-methyl-3-oxo-isoindolin-1-yl]acetic acid] | 10.9
CN(C)C(=O)CN1Cc2ccc(N3CC[C@@H](Oc4ccc(F)cc4)C3=O)cc2C1=O [Example 2-09, 2-[6-[(3R)-3-(4-fluorophenoxy)-2-oxo-pyrrolidin-1-yl]-1-oxo-isoindolin-2-yl]-N,N-dimethyl-acetamide] | 0.739
C[S+]([O-])CN1Cc2ncc(N3CC[C@@H](Oc4ccc(C(=O)C5CC5)nc4)C3=O)cc2C1=O (stereo partly drawn) [Example 1-57, 3-[(3R)-3-[[6-(cyclopropanecarbonyl)-3-pyridyl]oxy]-2-oxo-pyrrolidin-1-yl]-6-(methylsulfinylmethyl)-7H-pyrrolo[3,4-b]pyridin-5-one] | 1.12
CN(C)C(=O)CN1Cc2ccc(N3CC[C@@H](Oc4ccc(C(=O)C5CC5)cc4)C3=O)cc2C1=O [Example 2-48, 2-[6-[(3R)-3-[4-(cyclopropanecarbonyl)phenoxy]-2-oxo-pyrrolidin-1-yl]-1-oxo-isoindolin-2-yl]-N,N-dimethyl-acetamide] | 0.202
CCOc1ccc(O[C@@H]2CCN(c3cc(F)c4c(c3)C(=O)N(C(C)(C)C)C4)C2=O)cn1 [Example 1-30, 2-tert-butyl-6-[(3R)-3-[(6-ethoxy-3-pyridyl)oxy]-2-oxo-pyrrolidin-1-yl]-4-fluoro-isoindolin-1-one] | > 100

Further lines, results first:

EC50 [µM] | Structure (SMILES)
0.046 | CN(C)C(=O)CN1Cc2c(F)cc(N3CC[C@@H](Oc4ccc(OCCC5CC5)nc4)C3=O)cc2C1=O [Example 4-27, 2-[6-[(3R)-3-[[6-(2-cyclopropylethoxy)-3-pyridyl]oxy]-2-oxo-pyrrolidin-1-yl]-4-fluoro-1-oxo-isoindolin-2-yl]-N,N-dimethyl-acetamide]
0.218 | O=C(CN1Cc2ccc(N3CC[C@@H](Oc4ccc(Oc5ccc(F)cc5)nc4)C3=O)cc2C1=O)N1CCC(O)CC1 [Example 4-11, 6-[(3R)-3-[[6-(4-fluorophenoxy)-3-pyridyl]oxy]-2-oxo-pyrrolidin-1-yl]-2-[2-(4-hydroxy-1-piperidyl)-2-oxo-ethyl]isoindolin-1-one]
0.168 | O=C(CN1Cc2ccc(N3CC[C@@H](Oc4ccc(OCC5CC5)nc4)C3=O)cc2C1=O)NC1CC1 [Example 4-08, N-cyclopropyl-2-[6-[(3R)-3-[[6-(cyclopropylmethoxy)-3-pyridyl]oxy]-2-oxo-pyrrolidin-1-yl]-1-oxo-isoindolin-2-yl]acetamide]
0.049 | CNC(=O)CN1Cc2c(F)cc(N3CC[C@@H](Oc4ccc(OCCC5CC5)nc4)C3=O)cc2C1=O [Example 4-28, 2-[6-[(3R)-3-[[6-(2-cyclopropylethoxy)-3-pyridyl]oxy]-2-oxo-pyrrolidin-1-yl]-4-fluoro-1-oxo-isoindolin-2-yl]-N-methyl-acetamide]
0.107 | CNC(=O)CN1Cc2ccc(N3CC[C@@H](Oc4ccc(OCC5CC5)nc4)C3=O)cc2C1=O [Example 4-09, 2-[6-[(3R)-3-[[6-(cyclopropylmethoxy)-3-pyridyl]oxy]-2-oxo-pyrrolidin-1-yl]-1-oxo-isoindolin-2-yl]-N-methyl-acetamide]
0.062 | COCCNC(=O)CN1Cc2c(F)cc(N3CC[C@@H](Oc4ccc(OCCC5CC5)nc4)C3=O)cc2C1=O [Example 4-20, 2-[6-[(3R)-3-[[6-(2-cyclopropylethoxy)-3-pyridyl]oxy]-2-oxo-pyrrolidin-1-yl]-4-fluoro-1-oxo-isoindolin-2-yl]-N-(2-methoxyethyl)acetamide]
0.153 | COC(=O)CNC(=O)CN1Cc2ccc(N3CC[C@@H](Oc4ccc(OCC5CC5)nc4)C3=O)cc2C1=O [Example 4-31, methyl 2-[[2-[6-[(3R)-3-[[6-(cyclopropylmethoxy)-3-pyridyl]oxy]-2-oxo-pyrrolidin-1-yl]-1-oxo-isoindolin-2-yl]acetyl]amino]acetate]
0.205 | CCNC(=O)CN1Cc2ccc(N3CC[C@@H](Oc4ccc(OCC(F)(F)F)nc4)C3=O)cc2C1=O [Example 4-39, N-ethyl-2-[1-oxo-6-[(3R)-2-oxo-3-[[6-(2,2,2-trifluoroethoxy)-3-pyridyl]oxy]pyrrolidin-1-yl]isoindolin-2-yl]acetamide]
0.547 | CCOc1ccc(O[C@@H]2CCN(c3cc(F)c4c(c3)C(=O)N(CC(=O)NCCO)C4)C2=O)cn1 [Example 4-15, 2-[6-[(3R)-3-[(6-ethoxy-3-pyridyl)oxy]-2-oxo-pyrrolidin-1-yl]-4-fluoro-1-oxo-isoindolin-2-yl]-N-(2-hydroxyethyl)acetamide]
0.208 | O=C(CN1Cc2ccc(N3CC[C@@H](Oc4ccc(Oc5ccc(F)cc5)nc4)C3=O)cc2C1=O)N1CC(O)C1 [Example 4-10, 6-[(3R)-3-[[6-(4-fluorophenoxy)-3-pyridyl]oxy]-2-oxo-pyrrolidin-1-yl]-2-[2-(3-hydroxyazetidin-1-yl)-2-oxo-ethyl]isoindolin-1-one]
